Experimental data taken from ChEMBL document CHEMBL2331401, “Orally active fumagillin analogues: transformations of a reactive warhead in the gastric environment” (ACS Med Chem Lett, 2013).
pIC50: −log10 of the molar value. The source made the active and inactive calls. The rule behind the calls is not given here.

Tests used:
[1] = system: Rattus norvegicus; experiment: Inhibition of MetAP2 in Sprague-Dawley rat assessed as free MetAP2 level in whole blood at 3 mg/kg, po after 2 to 4 hrs by ELISA relative to vehicle-treated control; format: functional, organism-based; set-up: dose 3 mg/kg
[2] = system: Rattus norvegicus; experiment: Inhibition of MetAP2 in Sprague-Dawley rat assessed as free MetAP2 level in thymus at 3 mg/kg, po after 24 hrs by ELISA relative to vehicle-treated control; format: functional, organism-based; set-up: dose 3 mg/kg
[3] = system: Rattus norvegicus; experiment: Inhibition of MetAP2 in Sprague-Dawley rat assessed as free MetAP2 level in liver at 3 mg/kg, po after 24 hrs by ELISA relative to vehicle-treated control; format: functional, organism-based; set-up: dose 3 mg/kg
[4] = biological target: Methionine aminopeptidase 2 (Homo sapiens) (UniProt P50579); experiment: Inhibition of MetAP2 (unknown origin) using Met-AMC as substrate assessed as residual activity at 200 nM after 8 hrs
[5] = system: HUVEC; experiment: Antiproliferative activity against human HUVEC cells after 3 days; format: functional, cell-based; settings: 72 h
[6] = system: Plasma; experiment: Drug metabolism in rat plasma assessed as PPI-2458 formation at 4 degC after 1 hr by HPLC/MS/MS analysis; format: ADME, cell-free
[7] = biological target: Methionine aminopeptidase 2 (Homo sapiens) (UniProt P50579); experiment: Inhibition of MetAP2 (unknown origin) using Met-AMC as substrate in MES buffer at pH 6.5 at 200 nM after 8 hrs
[8] = biological target: Methionine aminopeptidase 2 (Homo sapiens) (UniProt P50579); experiment: Inhibition of MetAP2 (unknown origin) using Met-AMC as substrate in HEPES buffer at pH 7.5 at 200 nM after 8 hrs
[9] = Stability of the compound in MES buffer at pH 6.5 after 8 hrs by LC-MS analysis; format: physicochemical; settings: pH 6.5, 8 h

Methionine aminopeptidase 2 (Homo sapiens), sequence (P50579 2-478 limits assumed): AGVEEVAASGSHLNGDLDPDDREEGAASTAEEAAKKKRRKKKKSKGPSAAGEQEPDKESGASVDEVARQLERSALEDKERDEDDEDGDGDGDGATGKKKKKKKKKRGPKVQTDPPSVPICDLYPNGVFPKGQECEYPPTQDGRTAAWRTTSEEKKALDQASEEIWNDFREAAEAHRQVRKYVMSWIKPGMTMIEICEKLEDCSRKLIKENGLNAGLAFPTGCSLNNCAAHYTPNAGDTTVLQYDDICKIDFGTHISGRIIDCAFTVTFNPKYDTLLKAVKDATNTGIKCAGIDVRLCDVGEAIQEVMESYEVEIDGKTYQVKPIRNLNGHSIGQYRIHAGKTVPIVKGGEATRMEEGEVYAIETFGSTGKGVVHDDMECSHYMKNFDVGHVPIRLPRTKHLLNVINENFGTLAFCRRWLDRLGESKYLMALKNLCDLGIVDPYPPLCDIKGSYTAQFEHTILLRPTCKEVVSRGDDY

SMILES | inhibition [1] | inhibition [2] | inhibition [3] | Activity [4] | pIC50 [5] | Stability [6] | inhibition [7] | inhibition [8] | Stability [9]
C=C([C@H](O)CC=C(C)C)[C@H]1[C@H](OC)[C@H](OC(=O)N[C@@H](C(N)=O)C(C)C)CC[C@]12CO2 | Active | Active | Active | 27% | 8.51 | – | – | – | –
CO[C@@H]1[C@H](OC(=O)N[C@@H](C(N)=O)C(C)C)CC[C@](O)(CCl)[C@H]1[C@@]1(C)O[C@@H]1CC=C(C)C | Active | Active | Active | 6% | 9.82 | Unstable | inactive | Active | Stable
CO[C@@H]1[C@H](OC(=O)N[C@@H](C(N)=O)C(C)C)CC[C@]2(O)CO[C@](C)([C@H](O)CC=C(C)C)[C@@H]12 | inactive | inactive | inactive | 107% | < 4.52 | – | – | – | –
C=C([C@H](O)CC=C(C)C)[C@H]1[C@H](OC)[C@H](OC(=O)N[C@@H](C(N)=O)C(C)C)CC[C@]1(O)CCl | Active | Active | Active | 58% | 8.48 | – | – | – | –
CO[C@H]1[C@@H]([C@@]2(C)O[C@@H]2CC=C(C)C)[C@]2(CC[C@H]1OC(=O)N[C@@H](C(N)=O)C(C)C)CO2 | Active | Active | Active | 3% | 9.74 | – | Active | Active | –
CO[C@@H]1[C@H](OC(=O)N[C@@H](C(N)=O)C(C)C)CC[C@@]2(O)CO[C@](C)([C@H](O)CC=C(C)C)[C@@H]12 | inactive | inactive | inactive | 105% | < 4.52 | – | – | – | –
